Experimental data: patent US20260125375A1 (Pfizer Inc., priority 2022, published 2026)

Assays:
C-CBL (46-435) = target: T1, C-CBL (46-435) (Homo sapiens, UniProt P22681); test: Surface Plasmon Resonance (SPR) assay, binding affinity and kinetics, C-CBL; conditions: SPR at 10° C., biotinylated C-CBL (46-435) on streptavidin chip; geometric mean; read-out: C-CBL SPR Kd (nM) GMean
T1 construct: N-terminal biotinylated WT CBL-B (36-427) and C-CBL (46-435) were captured on a streptavidin (SA) coated sensor chip
T1 sequence (P22681 46-435): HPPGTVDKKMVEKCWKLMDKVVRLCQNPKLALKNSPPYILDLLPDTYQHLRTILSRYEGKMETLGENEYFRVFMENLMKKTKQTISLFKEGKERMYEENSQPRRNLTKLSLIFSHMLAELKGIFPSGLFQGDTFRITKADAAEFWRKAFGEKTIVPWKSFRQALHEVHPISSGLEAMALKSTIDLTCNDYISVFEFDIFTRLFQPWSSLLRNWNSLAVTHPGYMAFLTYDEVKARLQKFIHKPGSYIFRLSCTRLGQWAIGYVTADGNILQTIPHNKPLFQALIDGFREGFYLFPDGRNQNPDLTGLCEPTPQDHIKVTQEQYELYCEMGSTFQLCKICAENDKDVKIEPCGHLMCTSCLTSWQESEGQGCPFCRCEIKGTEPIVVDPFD
Outline: (§1)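 Biotinylated WT CBL-B (36-427) or C-CBL (46-435) captured on streptavidin chip (~5000–6000 RU); binding at 10° C in HEPES buffer pH 7.2 with 2% DMSO. Multi-cycle: 2-fold, 10-point series from 10 or 100 μM, 90 s association. Single-cycle: 3-fold, 6-point, 0.001–1 μM, 120 s association, >5400 s dissociation.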

WT CBL-B (36-427) = target: T2, WT CBL-B (36-427) (Homo sapiens, UniProt Q13191); test: Surface Plasmon Resonance (SPR) assay, binding affinity and kinetics, CBL-B; conditions: SPR at 10° C., biotinylated WT CBL-B (36-427) on streptavidin chip; geometric mean; read-out: CBL-B SPR Kd (nM) GMean
T2 construct: N-terminal biotinylated WT CBL-B (36-427) and C-CBL (46-435) were captured on a streptavidin (SA) coated sensor chip
Outline: as §1

C-CBL (residues 46-435) = target: T3, C-CBL (residues 46-435) (Homo sapiens, UniProt P22681); test: Ligand Displacement Assay (LDA), HTRF competitive binding against BODIPY-labeled fluorescent tracer, C-CBL; conditions: geometric mean of the number of tests, read-out: C-CBL Ki (nM) GMean
T3 construct: Purified CBL-B (residues 36-427) and C-CBL (residues 46-435) proteins from baculovirus-infected insect cells; made in house; host or cells: baculovirus-infected insect cells
T3 sequence (P22681 46-435): T1 sequence (P22681 46-435)
Outline: (§2)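 Insect-cell (baculovirus) protein, N-term AviTag biotinylated via BirA, captured by SA-Tb; BODIPY tracer, KD measured per protein. 3-fold serial dilutions, duplicate, […], 2% DMSO final. Ki (nM) = geomean of runs.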

CBL-B (residues 36-427) = target: T4, CBL-B (residues 36-427) (Homo sapiens, UniProt Q13191); test: Ligand Displacement Assay (LDA), HTRF competitive binding against BODIPY-labeled fluorescent tracer, CBL-B; conditions: geometric mean of the number of tests, read-out: CBL-B Ki (nM) GMean
T4 construct: Purified CBL-B (residues 36-427) and C-CBL (residues 46-435) proteins from baculovirus-infected insect cells; made in house; host or cells: baculovirus-infected insect cells
Outline: as §2

Row | SMILES | Kd (C-CBL (46-435)) | Kd (WT CBL-B (36-427)) | Ki (C-CBL (residues 46-435)) | Ki (CBL-B (residues 36-427))
1 | Cn1cnnc1CC1(c2cccc(-c3n[nH]c4c(CN5CC(F)C5)nc(C(F)(F)F)cc34)c2)COC1 [Example C65, 7-[(3-fluoroazetidin-1-yl)methyl]-3-(3-{3-[(4-methyl-4H-1,2,4-triazol-3-yl)methyl]oxetan-3-yl}phenyl)-5-(trifluoromethyl)-1H-pyrazolo[3,4-c]pyridine] | 127 nM | 4.9 nM | 126 nM | 21.8 nM
2 | Cn1cnnc1CC1(c2cccc(-c3n[nH]c4c(CN5C[C@@H](F)[C@@H](F)C5)nc(C(F)(F)F)cc34)c2)COC1 [Example C67, 7-{[(3R,4S)-3,4-difluoropyrrolidin-1-yl]methyl}-3-(3-{3-[(4-methyl-4H-1,2,4-triazol-3-yl)methyl]oxetan-3-yl}phenyl)-5-(trifluoromethyl)-1H-pyrazolo[3,4-c]pyridine] | 51 nM | 4.4 nM | 72.1 nM | 12.6 nM
3 | C[C@H](c1nc(C(F)(F)F)cc2c(-c3cccc([C@H](c4nncn4C)C4CCC4)c3)n[nH]c12)N1CCNC(=O)C1 (single isomer, unassigned) [Example D89] | 307 nM | 11 nM | 290 nM | 20.9 nM
4 | COc1nc(C(F)(F)F)cc2c(-c3cccc(C4(Cc5nncn5C)COC4)c3)n[nH]c12 [Example J10, 7-methoxy-3-(3-{3-[(4-methyl-4H-1,2,4-triazol-3-yl)methyl]oxetan-3-yl}phenyl)-5-(trifluoromethyl)-1H-pyrazolo[3,4-c]pyridine] | 178 nM | 21.4 nM | 91.9 nM | 25.1 nM
5 | Cn1cnnc1[C@@H](c1cccc(-c2n[nH]c3c(CN4CCC4)nc(C(F)(F)F)cc23)c1)C1CCC1 [Example D83] | 177 nM | 7.6 nM | 198 nM | 27.7 nM
6 | CC(CN)c1nc(C(F)(F)F)cc2c(-c3cccc([C@H](c4nncn4C)C4CCC4)c3)n[nH]c12 (single isomer, unassigned) [Example K15] | 452 nM | 23.9 nM | 263 nM | 30.1 nM
7 | Cn1cnnc1CC1(c2cccc(-c3n[nH]c4c(CCN)nc(C(F)(F)F)cc34)c2)COC1 [Example K5, 2-[3-(3-{3-[(4-methyl-4H-1,2,4-triazol-3-yl)methyl]oxetan-3-yl}phenyl)-5-(trifluoromethyl)-1H-pyrazolo[3,4-c]pyridin-7-yl]ethan-1-amine] | 221 nM | 23.6 nM | 199 nM | 55.3 nM
8 | C[C@@H](N)c1nc(C(F)(F)F)cc2c(-c3cccc([C@H](c4nncn4C)C4CCC4)c3)n[nH]c12 [Example K13, (1R)-1-[3-{3-[(R)-cyclobutyl(4-methyl-4H-1,2,4-triazol-3-yl)methyl]phenyl}-5-(trifluoromethyl)-1H-pyrazolo[3,4-c]pyridin-7-yl]ethan-1-amine] | 285 nM | 12.1 nM | 215 nM | 27 nM
9 | C[C@@H](c1nc(C(F)(F)F)cc2c(-c3cccc(C4(Cc5nncn5C)COC4)c3)n[nH]c12)N1CCNC(=O)C1 (single isomer, unassigned) [Example D51] | 15 nM | 2.7 nM | 19.6 nM | 5.7 nM
10 | C[C@@H](c1nc(C(F)(F)F)cc2c(-c3cccc(C4(Cc5nncn5C)COC4)c3)n[nH]c12)N1CCCC1 (single isomer, unassigned) [Example D47] | 193 nM | 16.3 nM | 162 nM | 36.9 nM
11 | Cn1cnnc1CC1(c2cccc(-c3n[nH]c4c(CN5CCOCC5)nc(C(F)(F)F)cc34)c2)COC1 [Example C63, 3-(3-{3-[(4-methyl-4H-1,2,4-triazol-3-yl)methyl]oxetan-3-yl}phenyl)-7-[(morpholin-4-yl)methyl]-5-(trifluoromethyl)-1H-pyrazolo[3,4-c]pyridine] | 91.8 nM | 8 nM | 120 nM | 27 nM
12 | CNCc1nc(C(F)(F)F)cc2c(-c3cccc([C@H](c4nncn4C)C4CCC4)c3)n[nH]c12 [Example C103, 1-[3-{3-[(R)-cyclobutyl(4-methyl-4H-1,2,4-triazol-3-yl)methyl]phenyl}-5-(trifluoromethyl)-1H-pyrazolo[3,4-c]pyridin-7-yl]-N-methylmethanamine] | 349 nM | 20.5 nM | 389 nM | 46 nM
13 | C[C@H]1CN(Cc2nc(C(F)(F)F)cc3c(-c4cccc(C5(Cc6nncn6C)COC5)c4)n[nH]c23)CCO1 [Example C58, 7-{[(2S)-2-methylmorpholin-4-yl]methyl}-3-(3-{3-[(4-methyl-4H-1,2,4-triazol-3-yl)methyl]oxetan-3-yl}phenyl)-5-(trifluoromethyl)-1H-pyrazolo[3,4-c]pyridine] | 54.1 nM | 5.8 nM | 82.4 nM | 14.8 nM
14 | Cn1cnnc1[C@@H](c1cccc(-c2n[nH]c3c(CN4CCC(F)(F)C4)nc(C(F)(F)F)cc23)c1)C1CCC1 [Example C114, 3-{3-[(R)-cyclobutyl(4-methyl-4H-1,2,4-triazol-3-yl)methyl]phenyl}-7-[(3,3-difluoropyrrolidin-1-yl)methyl]-5-(trifluoromethyl)-1H-pyrazolo[3,4-c]pyridine] | 278 nM | 10.8 nM | 1070 nM | 87.9 nM
15 | CN(C)Cc1nc(C(F)(F)F)cc2c(-c3cccc([C@H](c4nncn4C)C4CCC4)c3)n[nH]c12 [Example D82] | 213 nM | 8.7 nM | 258 nM | 32.5 nM
16 | Cn1cnnc1CC1(c2cccc(-c3n[nH]c4c(CN5CCNC(=O)C5)nc(C(F)(F)F)cc34)c2)COC1 [Example C55, 4-{[3-(3-{3-[(4-methyl-4H-1,2,4-triazol-3-yl)methyl]oxetan-3-yl}phenyl)-5-(trifluoromethyl)-1H-pyrazolo[3,4-c]pyridin-7-yl]methyl}piperazin-2-one] | 27.6 nM | 3 nM | 65.3 nM | 21.2 nM
17 | Cn1cnnc1CC1(c2cccc(-c3n[nH]c4c(CNC5CCCC5)nc(C(F)(F)F)cc34)c2)COC1 [Example C54, N-{[3-(3-{3-[(4-methyl-4H-1,2,4-triazol-3-yl)methyl]oxetan-3-yl}phenyl)-5-(trifluoromethyl)-1H-pyrazolo[3,4-c]pyridin-7-yl]methyl}cyclopentanamine] | 93.2 nM | 4.5 nM | 49.4 nM | 10.7 nM
18 | CC(O)c1nc(C(F)(F)F)cc2c(-c3cccc(C4(Cc5nncn5C)COC4)c3)n[nH]c12 (single isomer, unassigned) [Example K11, (1ξ)-1-[3-(3-{3-[(4-methyl-4H-1,2,4-triazol-3-yl)methyl]oxetan-3-yl}phenyl)-5-(trifluoromethyl)-1H-pyrazolo[3,4-c]pyridin-7-yl]ethan-1-ol] | 199 nM | 11.7 nM | 119 nM | 31.2 nM
19 | CC(NC1CC(F)(F)C1)c1nc(C(F)(F)F)cc2c(-c3cccc(C4(Cc5nncn5C)COC4)c3)n[nH]c12 (single isomer, unassigned) [Example C93, 3,3-difluoro-N-{(1ξ)-1-[3-(3-{3-[(4-methyl-4H-1,2,4-triazol-3-yl)methyl]oxetan-3-yl}phenyl)-5-(trifluoromethyl)-1H-pyrazolo[3,4-c]pyridin-7-yl]ethyl}cyclobutan-1-amine] | 21.7 nM | 2.3 nM | 15.9 nM | 3.6 nM
20 | Cn1cnnc1CC1(c2cccc(-c3n[nH]c4c(CN5CCC(F)(F)C5)nc(C(F)(F)F)cc34)c2)COC1 [Example C70, 7-[(3,3-difluoropyrrolidin-1-yl)methyl]-3-(3-{3-[(4-methyl-4H-1,2,4-triazol-3-yl)methyl]oxetan-3-yl}phenyl)-5-(trifluoromethyl)-1H-pyrazolo[3,4-c]pyridine] | 80 nM | 6 nM | 113 nM | 20.6 nM
21 | Cn1cnnc1[C@@H](c1cccc(-c2n[nH]c3c(CN4C[C@@H](F)[C@H](F)C4)nc(C(F)(F)F)cc23)c1)C1CCC1 [Example C111, 3-{3-[(R)-cyclobutyl(4-methyl-4H-1,2,4-triazol-3-yl)methyl]phenyl}-7-{[(3R,4R)-3,4-difluoropyrrolidin-1-yl]methyl}-5-(trifluoromethyl)-1H-pyrazolo[3,4-c]pyridine] | 282 nM | 3.3 nM | 313 nM | 26.9 nM
